Measurements from patent US20240408086A1, “USE OF LUVADAXISTAT FOR THE TREATMENT OF COGNITIVE IMPAIRMENT” (TAKEDA PHARMACEUTICAL COMPANY LIMITED, priority 2021, published 2024).

Test system: adult patients with persistent negative symptoms of schizophrenia
Format: in vivo, human
Description: To assess changes in cognitive impairment associated with schizophrenia (CIAS), secondary endpoints included the 12-week change from baseline in the Brief Assessment of Cognition in Schizophrenia (BACS) composite score, a measure of cognition across multiple domains, and the Schizophrenia Cognition Rating Scale (SCORS) score, a measure of day-to-day cognitive functioning requiring input from an adult informant. Secondary endpoints were not corrected for multiplicity.
The BACS is specifically designed to measure treatment-related improvements in cognition and includes alternate forms. BACS is a reliable and sensitive measure of cognitive function in schizophrenia. The BACS is a cognition assessment battery that assesses 6 domains of cognitive function found to be consistently impaired in schizophrenia: verbal memory; working memory; motor speed; attention; executive functions; and verbal fluency. The primary measure from each test of the BACS is standardized by creating T-scores whereby the mean of the test session of a matched reference healthy participant is set to 50 and the standard deviation set to 10.

[1] = 125 mg once daily, MMRM, preliminary analysis
[2] = 125 mg once daily, preliminary analysis

Structure (SMILES): O=c1[nH]nc(CCc2ccc(C(F)(F)F)cc2)cc1O [Compound (I), luvadaxistat]
- BACS Attention Cognition Domain, Difference from Placebo for Week 6, LS Mean (SE) (50 mg, Week 6, MMRM): −0.1 (1.12)
- BACS Executive Functions Cognition Domain, Adjusted Change from Baseline to Week 6, LS Mean (SE) (50 mg, Week 6, MMRM): 0.9 (1.22)
- BACS Executive Functions Cognition Domain, Difference from Placebo for Week 6, LS Mean (SE) (50 mg, Week 6, MMRM): 2.1 (1.53)
- BACS Verbal Fluency Cognition Domain, Adjusted Change from Baseline to Week 6, LS Mean (SE) (50 mg, Week 6, MMRM): −0.3 (0.70)
- BACS Verbal Fluency Cognition Domain, Difference from Placebo for Week 6, LS Mean (SE) (50 mg, Week 6, MMRM): −0.5 (0.87)
- BACS Attention Cognition Domain, Change from Baseline to Week 12, Mean (SD) (50 mg, Week 12): 2.2 (6.95)
- BACS Attention Cognition Domain, Change from Baseline to Week 12, Median (50 mg, Week 12): 2.0
- BACS Attention Cognition Domain, Week 12, Mean (SD) (50 mg, Week 12): 38.0 (11.83)
- BACS Attention Cognition Domain, Week 12, Median (50 mg, Week 12): 39.0
- BACS Executive Functions Cognition Domain, Change from Baseline to Week 12, Mean (SD) (50 mg, Week 12): 2.6 (7.73)
- BACS Executive Functions Cognition Domain, Change from Baseline to Week 12, Median (50 mg, Week 12): 1.0
- BACS Executive Functions Cognition Domain, Week 12, Mean (SD) (50 mg, Week 12): 46.4 (10.55)
- BACS Executive Functions Cognition Domain, Week 12, Median (50 mg, Week 12): 49.5
- BACS Verbal Fluency Cognition Domain, Change from Baseline to Week 12, Mean (SD) (50 mg, Week 12): 1.5 (5.87)
- BACS Verbal Fluency Cognition Domain, Change from Baseline to Week 12, Median (50 mg, Week 12): 0.0
- BACS Verbal Fluency Cognition Domain, Week 12, Mean (SD) (50 mg, Week 12): 41.8 (10.41)
- BACS Verbal Fluency Cognition Domain, Week 12, Median (50 mg, Week 12): 40.0
- BACS Attention Cognition Domain, Adjusted Change from Baseline to Week 12, LS Mean (SE) (50 mg, Week 12, MMRM): 2.3 (1.02)
- BACS Attention Cognition Domain, Difference from Placebo for Week 12, LS Mean (SE) (50 mg, Week 12, MMRM): 0.4 (1.28)
- BACS Executive Functions Cognition Domain, Adjusted Change from Baseline to Week 12, LS Mean (SE) (50 mg, Week 12, MMRM): 1.8 (1.09)
- BACS Executive Functions Cognition Domain, Difference from Placebo for Week 12, LS Mean (SE) (50 mg, Week 12, MMRM): 1.2 (1.36)
- BACS Verbal Fluency Cognition Domain, Adjusted Change from Baseline to Week 12, LS Mean (SE) (50 mg, Week 12, MMRM): 1.2 (0.85)
- BACS Verbal Fluency Cognition Domain, Difference from Placebo for Week 12, LS Mean (SE) (50 mg, Week 12, MMRM): 0.2 (1.07)
- BACS Verbal Memory Cognition Domain, Difference from Placebo for Week 6, LS Mean (SE) (125 mg once daily, MMRM, one-sided unadjusted p 0.025, preliminary analysis): 2.5 (1.29)
- BACS Composite Score, Difference from Placebo for Week 6, LS Mean (SE) (125 mg once daily, MMRM, one-sided unadjusted p 0.038, preliminary analysis): 1.8 (1.02)
- BACS Motor Speed Cognition Domain, Difference from Placebo for Week 12, LS Mean (SE) (125 mg once daily, MMRM, one-sided unadjusted p 0.067, preliminary analysis): 1.8 (1.18)
- BACS Composite Score, Difference from Placebo for Week 12, LS Mean (SE) (125 mg once daily, MMRM, one-sided unadjusted p 0.095, preliminary analysis): 1.5 (1.16)
- BACS Verbal Memory Cognition Domain, Difference from Placebo for Week 12, LS Mean (SE) (125 mg once daily, MMRM, one-sided unadjusted p 0.164, preliminary analysis): 1.4 (1.44)
- BACS Working Memory Cognition Domain, Difference from Placebo for Week 6, LS Mean (SE) (125 mg once daily, MMRM, one-sided unadjusted p 0.239, preliminary analysis): 0.8 (1.16)
- BACS Working Memory Cognition Domain, Difference from Placebo for Week 12, LS Mean (SE) (125 mg once daily, MMRM, one-sided unadjusted p 0.406, preliminary analysis): 0.3 (1.35)
- BACS Motor Speed Cognition Domain, Difference from Placebo for Week 6, LS Mean (SE) (125 mg once daily, MMRM, one-sided unadjusted p 0.753, preliminary analysis): −0.9 (1.26)
- BACS Composite Score, Adjusted Change from Baseline to Week 6, LS Mean (SE) [1]: 1.4 (0.80)
- BACS Composite Score, Adjusted Change from Baseline to Week 12, LS Mean (SE) [1]: 2.3 (0.91)
- BACS Motor Speed Cognition Domain, Adjusted Change from Baseline to Week 6, LS Mean (SE) [1]: −1.0 (0.98)
- BACS Motor Speed Cognition Domain, Adjusted Change from Baseline to Week 12, LS Mean (SE) [1]: 1.3 (0.93)
- BACS Verbal Memory Cognition Domain, Adjusted Change from Baseline to Week 6, LS Mean (SE) [1]: 1.2 (1.01)
- BACS Verbal Memory Cognition Domain, Adjusted Change from Baseline to Week 12, LS Mean (SE) [1]: 0.8 (1.13)
- BACS Working Memory Cognition Domain, Adjusted Change from Baseline to Week 6, LS Mean (SE) [1]: 0.9 (0.90)
- BACS Working Memory Cognition Domain, Adjusted Change from Baseline to Week 12, LS Mean (SE) [1]: 1.0 (1.06)
- BACS Composite Score, Change from Baseline to Week 6, Mean (SD) [2]: 1.9 (4.95)
- BACS Composite Score, Change from Baseline to Week 6, Median [2]: 2.0
- BACS Composite Score, Change from Baseline to Week 12, Mean (SD) [2]: 2.9 (6.54)
- BACS Composite Score, Change from Baseline to Week 12, Median [2]: 3.5
- BACS Composite Score, Week 6, Mean (SD) [2]: 35.6 (14.55)
- BACS Composite Score, Week 6, Median [2]: 37.0
- BACS Composite Score, Week 12, Mean (SD) [2]: 37.1 (15.02)
- BACS Composite Score, Week 12, Median [2]: 38.5
- BACS Motor Speed Cognition Domain, Change from Baseline to Week 6, Mean (SD) [2]: 0.0 (5.97)
- BACS Motor Speed Cognition Domain, Change from Baseline to Week 6, Median [2]: 0.5
- BACS Motor Speed Cognition Domain, Change from Baseline to Week 12, Mean (SD) [2]: 2.5 (7.60)
- BACS Motor Speed Cognition Domain, Change from Baseline to Week 12, Median [2]: 2.0
- BACS Motor Speed Cognition Domain, Week 6, Mean (SD) [2]: 39.6 (10.80)
- BACS Motor Speed Cognition Domain, Week 6, Median [2]: 39.0
- BACS Motor Speed Cognition Domain, Week 12, Mean (SD) [2]: 42.6 (10.35)
- BACS Motor Speed Cognition Domain, Week 12, Median [2]: 42.0
- BACS Verbal Memory Cognition Domain, Change from Baseline to Week 6, Mean (SD) [2]: 1.8 (7.71)
- BACS Verbal Memory Cognition Domain, Change from Baseline to Week 6, Median [2]: 2.5
- BACS Verbal Memory Cognition Domain, Change from Baseline to Week 12, Mean (SD) [2]: 1.6 (8.07)
- BACS Verbal Memory Cognition Domain, Change from Baseline to Week 12, Median [2]: 1.0
- BACS Verbal Memory Cognition Domain, Week 6, Mean (SD) [2]: 42.4 (12.62)
- BACS Verbal Memory Cognition Domain, Week 6, Median [2]: 42.0
- BACS Verbal Memory Cognition Domain, Week 12, Mean (SD) [2]: 42.3 (13.54)
- BACS Verbal Memory Cognition Domain, Week 12, Median [2]: 42.5
- BACS Working Memory Cognition Domain, Change from Baseline to Week 6, Mean (SD) [2]: 1.5 (5.89)
